Where “and” joins values, the source holds several entries; their conditions need not be identical. Identical values can stand only once.
Details: 293.15 K, Liquid, Vibrating tube method

CCCCCCCCCC [decane]
Details | mass density
4401 kPa | 733.2 kg/m3
4420 kPa | 733.3 kg/m3
4439 kPa | 733.3 kg/m3
4450 kPa | 733.5 kg/m3
4464 kPa | 733.3 kg/m3
4478 kPa | 733.3 kg/m3
4500 kPa | 733.3 kg/m3
4518 kPa | 733.3 kg/m3
4530 kPa | 733.3 kg/m3
4544 kPa | 733.3 kg/m3
4558 kPa | 733.4 kg/m3
4571 kPa | 733.3 kg/m3
4586 kPa | 733.3 kg/m3
4595 kPa | 733.3 kg/m3
4616 kPa | 733.5 kg/m3
4637 kPa | 733.4 kg/m3
4652 kPa | 733.4 kg/m3
4671 kPa | 733.3 kg/m3
4685 kPa | 733.6 kg/m3
4705 kPa | 733.4 kg/m3
4728 kPa | 733.4 kg/m3
4742 kPa | 733.5 kg/m3
4760 kPa | 733.5 kg/m3
4773 kPa | 733.5 kg/m3
4795 kPa | 733.7 kg/m3
4810 kPa | 733.6 kg/m3
4831 kPa | 733.5 kg/m3
4849 kPa | 733.6 kg/m3
4877 kPa | 733.5 kg/m3
4901 kPa | 733.6 kg/m3
4914 kPa | 733.7 kg/m3
4937 kPa | 733.6 kg/m3
4953 kPa | 733.7 kg/m3
4976 kPa | 733.7 kg/m3
4996 kPa | 733.6 kg/m3
5014 kPa | 733.8 kg/m3
5029 kPa | 733.7 kg/m3
5053 kPa | 733.7 kg/m3
5076 kPa | 733.8 kg/m3
5091 kPa | 733.8 kg/m3
5103 kPa | 733.9 kg/m3
5127 kPa | 733.8 kg/m3
5148 kPa | 733.7 kg/m3
5166 kPa | 733.9 kg/m3
5187 kPa | 733.8 kg/m3
5202 kPa | 733.8 kg/m3
5220 kPa | 733.9 kg/m3
5234 kPa | 733.8 kg/m3
5248 kPa | 733.9 kg/m3
5264 kPa | 733.9 kg/m3
5278 kPa | 733.9 kg/m3
5297 kPa | 733.8 kg/m3
5299 kPa | 733.9 kg/m3
5304 kPa | 733.9 kg/m3
5315 kPa | 733.9 kg/m3
5319 kPa | 733.9 kg/m3
5329 kPa | 733.9 kg/m3
5335 kPa | 734 kg/m3
5346 kPa | 734 kg/m3
5352 kPa | 734 kg/m3
5362 kPa | 733.9 kg/m3
5375 kPa | 734 kg/m3
5393 kPa | 733.9 kg/m3
5395 kPa | 734 kg/m3
5409 kPa | 733.9 kg/m3
5422 kPa | 734 kg/m3
5424 kPa | 734.1 kg/m3
5440 kPa | 734 kg/m3
5459 kPa | 734 kg/m3
5475 kPa | 734.1 kg/m3
5492 kPa | 734 kg/m3
5508 kPa | 734 kg/m3
5522 kPa | 734 kg/m3
5541 kPa | 734.1 kg/m3
5556 kPa | 734.1 kg/m3
5570 kPa | 734.1 kg/m3
5592 kPa | 734.1 kg/m3
5612 kPa | 734.2 kg/m3
5626 kPa | 734.2 kg/m3
5643 kPa | 734.2 kg/m3
5656 kPa | 734.2 kg/m3
5676 kPa | 734.3 kg/m3
5696 kPa | 734.2 kg/m3
5714 kPa | 734.1 kg/m3
5734 kPa | 734.3 kg/m3
5753 kPa | 734.2 kg/m3
5771 kPa | 734.3 kg/m3
5792 kPa | 734.3 kg/m3
5808 kPa | 734.4 kg/m3
5824 kPa | 734.4 kg/m3
5839 kPa | 734.4 kg/m3
5858 kPa | 734.4 kg/m3
5880 kPa | 734.4 kg/m3
5902 kPa | 734.3 kg/m3
5918 kPa | 734.4 kg/m3
5937 kPa | 734.3 kg/m3
5957 kPa | 734.4 kg/m3
5977 kPa | 734.5 kg/m3
5992 kPa | 734.4 kg/m3
6012 kPa | 734.5 kg/m3
6035 kPa | 734.5 kg/m3
6050 kPa | 734.6 kg/m3
6077 kPa | 734.6 kg/m3
6097 kPa | 734.6 kg/m3
6112 kPa | 734.6 kg/m3
6135 kPa | 734.5 kg/m3
6161 kPa | 734.6 kg/m3
6198 kPa | 734.7 kg/m3
6243 kPa | 734.6 kg/m3
6254 kPa | 734.6 kg/m3
6257 kPa | 734.6 kg/m3
6259 kPa | 734.7 kg/m3
6262 kPa | 734.6 kg/m3
6265 kPa | 734.6 kg/m3
6266 kPa | 734.7 kg/m3 and 734.6 kg/m3
6267 kPa | 734.6 kg/m3
6268 kPa | 734.6 kg/m3
6278 kPa | 734.7 kg/m3
6299 kPa | 734.6 kg/m3
6320 kPa | 734.6 kg/m3
6344 kPa | 734.7 kg/m3
6362 kPa | 734.7 kg/m3
6383 kPa | 734.7 kg/m3
6411 kPa | 734.9 kg/m3
6436 kPa | 734.7 kg/m3
6451 kPa | 734.7 kg/m3
6476 kPa | 734.8 kg/m3
6502 kPa | 734.9 kg/m3
6521 kPa | 734.8 kg/m3
6550 kPa | 734.8 kg/m3
6573 kPa | 734.8 kg/m3
6596 kPa | 734.8 kg/m3
6622 kPa | 734.9 kg/m3
6642 kPa | 734.8 kg/m3
6665 kPa | 735 kg/m3
6692 kPa | 734.9 kg/m3
6725 kPa | 735 kg/m3

From the NIST ThermoML archive (doi:10.1021/je800110r)
